In ChEMBL document CHEMBL1141715, “Novel BK channel openers containing dehydroabietic acid skeleton: structure-activity relationship for peripheral substituents on ring C” (Bioorg Med Chem Lett, 2008):

Target: Calcium-activated potassium channel subunit alpha-1 (Homo sapiens) (UniProt Q12791)
Experiment: Channel opening activity at human BKalpha channel expressed in CHOK1 cells assessed as ionic current amplitude at 30 uM at holding potential of -90 mV by population patch clamp technique relative to untreated control
Type: cell-based
Conditions: CHO-K1

Sequence of Calcium-activated potassium channel subunit alpha-1 (Homo sapiens) (Q12791 whole entry): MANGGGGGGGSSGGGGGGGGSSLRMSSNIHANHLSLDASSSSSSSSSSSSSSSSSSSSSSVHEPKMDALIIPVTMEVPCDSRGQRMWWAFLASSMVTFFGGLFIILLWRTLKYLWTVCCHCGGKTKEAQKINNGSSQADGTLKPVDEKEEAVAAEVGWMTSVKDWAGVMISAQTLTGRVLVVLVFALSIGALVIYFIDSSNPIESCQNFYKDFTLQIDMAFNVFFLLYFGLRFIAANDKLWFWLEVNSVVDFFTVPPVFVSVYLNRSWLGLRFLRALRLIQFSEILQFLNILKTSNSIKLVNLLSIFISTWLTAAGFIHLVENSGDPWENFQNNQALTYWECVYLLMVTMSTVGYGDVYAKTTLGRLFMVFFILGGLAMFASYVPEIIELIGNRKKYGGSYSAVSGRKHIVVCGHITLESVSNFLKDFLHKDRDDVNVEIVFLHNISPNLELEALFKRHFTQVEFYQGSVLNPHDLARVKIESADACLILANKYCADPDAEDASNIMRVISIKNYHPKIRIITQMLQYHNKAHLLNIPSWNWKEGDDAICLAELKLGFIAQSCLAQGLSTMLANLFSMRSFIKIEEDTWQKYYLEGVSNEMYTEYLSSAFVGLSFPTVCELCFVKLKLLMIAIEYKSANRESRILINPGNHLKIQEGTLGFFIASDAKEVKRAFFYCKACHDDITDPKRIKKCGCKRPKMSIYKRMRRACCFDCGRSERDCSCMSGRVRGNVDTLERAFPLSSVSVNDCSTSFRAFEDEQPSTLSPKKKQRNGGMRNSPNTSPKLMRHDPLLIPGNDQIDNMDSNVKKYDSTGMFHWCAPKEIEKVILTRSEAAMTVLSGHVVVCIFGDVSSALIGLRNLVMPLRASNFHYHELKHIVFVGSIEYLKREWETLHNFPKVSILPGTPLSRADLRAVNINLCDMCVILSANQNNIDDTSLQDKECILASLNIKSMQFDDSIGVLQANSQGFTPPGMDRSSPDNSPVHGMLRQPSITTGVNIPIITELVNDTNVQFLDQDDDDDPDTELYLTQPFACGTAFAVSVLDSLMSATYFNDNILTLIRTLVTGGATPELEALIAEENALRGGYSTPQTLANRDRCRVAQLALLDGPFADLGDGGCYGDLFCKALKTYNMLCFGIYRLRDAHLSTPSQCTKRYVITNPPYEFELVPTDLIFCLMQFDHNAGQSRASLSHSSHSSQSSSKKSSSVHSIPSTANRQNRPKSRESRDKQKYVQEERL

| Structure (SMILES) | Activity [%] |
| --- | --- |
| CC(C)c1cc2c(cc1NC(=O)c1ccccc1C(F)(F)F)[C@@]1(C)CCC[C@@](C)(C(=O)O)[C@@H]1CC2 | 59.4 |
| CC(C)c1cc2c(cc1NC(=O)Nc1ccc(F)c(Cl)c1)[C@@]1(C)CCC[C@@](C)(C(=O)O)[C@@H]1CC2 | 156 |
| CC(C)c1cc2c(cc1NC(=O)Nc1ccccc1C(F)(F)F)[C@@]1(C)CCC[C@@](C)(C(=O)O)[C@@H]1CC2 | 114 |
| CC(C)c1c(N)cc2c(c1N)CC[C@H]1[C@](C)(C(=O)O)CCC[C@]21C | 110 |
| CC(C)c1cc2c(cc1OCc1ccccc1)[C@@]1(C)CCC[C@@](C)(C(=O)O)[C@@H]1CC2 | 89.5 |
| CC(C)c1cc2c(cc1NC(=O)Nc1cccc(Cl)c1)[C@@]1(C)CCC[C@@](C)(C(=O)O)[C@@H]1CC2 | 136 |
| CC(C)c1cc2c(cc1NC(=S)Nc1cccc(C(F)(F)F)c1)[C@@]1(C)CCC[C@@](C)(C(=O)O)[C@@H]1CC2 | 143 |
| CC(C)c1cc2c(cc1NC(=O)c1ccc(C(F)(F)F)cc1)[C@@]1(C)CCC[C@@](C)(C(=O)O)[C@@H]1CC2 | 128 |
| CC(C)c1cc2c(cc1NC(=O)Nc1ccc(Cl)c(C(F)(F)F)c1)[C@@]1(C)CCC[C@@](C)(C(=O)O)[C@@H]1CC2 | 168 |
| CCC(=O)Nc1cc2c(cc1C(C)C)CC[C@H]1[C@](C)(C(=O)O)CCC[C@]21C | 90.2 |
| CCCCCCOc1cc2c(cc1C(C)C)CC[C@H]1[C@](C)(C(=O)O)CCC[C@]21C | 78.7 |
| CC(C)c1cc2c(cc1OCc1ccc(Cl)cc1)[C@@]1(C)CCC[C@@](C)(C(=O)O)[C@@H]1CC2 | 91.6 |
| CC(C)c1cc2c(cc1NC(=O)C1CCCCC1)[C@@]1(C)CCC[C@@](C)(C(=O)O)[C@@H]1CC2 | 95.9 |
| CC(C)c1cc2c(cc1NC(=O)Cc1ccccc1)[C@@]1(C)CCC[C@@](C)(C(=O)O)[C@@H]1CC2 | 90.9 |
| CC(C)c1cc2c(cc1NC(=O)C1CC1)[C@@]1(C)CCC[C@@](C)(C(=O)O)[C@@H]1CC2 | 91.6 |
| CC(C)c1cc2c(cc1O)[C@@]1(C)CCC[C@@](C)(C(=O)O)[C@@H]1CC2 | 83 |
| CCCCCCCCCOc1cc2c(cc1C(C)C)CC[C@H]1[C@](C)(C(=O)O)CCC[C@]21C | 81.8 |
| CC(C)c1cc2c(cc1NC(=S)Nc1cc(C(F)(F)F)cc(C(F)(F)F)c1)[C@@]1(C)CCC[C@@](C)(C(=O)O)[C@@H]1CC2 | 240 |
| CC(C)c1cc2c(cc1OCc1ccc3ccccc3c1)[C@@]1(C)CCC[C@@](C)(C(=O)O)[C@@H]1CC2 | 83.7 |
| CC(C)Oc1cc2c(cc1C(C)C)CC[C@H]1[C@](C)(C(=O)O)CCC[C@]21C | 125 |
| CC(C)c1cc2c(cc1NC(=O)c1ccc(Cl)cc1)[C@@]1(C)CCC[C@@](C)(C(=O)O)[C@@H]1CC2 | 108 |
| CC(C)c1cc2c(cc1NC(=O)Nc1cc(Cl)cc(Cl)c1)[C@@]1(C)CCC[C@@](C)(C(=O)O)[C@@H]1CC2 | 151 |
| CC(C)c1cc2c(cc1NC(=O)Nc1ccccc1)[C@@]1(C)CCC[C@@](C)(C(=O)O)[C@@H]1CC2 | 72.7 |
| CC(C)c1cc2c(cc1NC(=O)Nc1cc(C(F)(F)F)ccc1Cl)[C@@]1(C)CCC[C@@](C)(C(=O)O)[C@@H]1CC2 | 128 |
| CC(C)c1cc2c(cc1OCCCc1ccccc1)[C@@]1(C)CCC[C@@](C)(C(=O)O)[C@@H]1CC2 | 93.2 |

| Structure (SMILES) | Activity [%] |
| --- | --- |
| COc1ccc(C(=O)Nc2cc3c(cc2C(C)C)CC[C@H]2[C@](C)(C(=O)O)CCC[C@]32C)cc1 | 94.1 |
| CC(C)c1c(Cl)cc2c(c1Cl)CC[C@H]1[C@](C)(C(=O)O)CCC[C@]21C | 180 |
| CC(C)c1cc2c(cc1NC(=O)Nc1ccc(C(F)(F)F)cc1)[C@@]1(C)CCC[C@@](C)(C(=O)O)[C@@H]1CC2 | 138 |
| CC(C)c1cc2c(cc1NC(=O)c1cc(C(F)(F)F)cc(C(F)(F)F)c1)[C@@]1(C)CCC[C@@](C)(C(=O)O)[C@@H]1CC2 | 81.8 |
| CCCC(=O)Nc1cc2c(cc1C(C)C)CC[C@H]1[C@](C)(C(=O)O)CCC[C@]21C | 92.4 |
| CC(=O)Nc1cc2c(cc1C(C)C)CC[C@H]1[C@](C)(C(=O)O)CCC[C@]21C | 96.1 |
| CC(C)c1cc2c(cc1N)[C@@]1(C)CCC[C@@](C)(C(=O)O)[C@@H]1CC2 | 88.9 |
| CC(C)c1c([N+](=O)[O-])cc2c(c1[N+](=O)[O-])CC[C@H]1[C@](C)(C(=O)O)CCC[C@]21C | 200 |
| COc1ccc(NC(=O)Nc2cc3c(cc2C(C)C)CC[C@H]2[C@](C)(C(=O)O)CCC[C@]32C)cc1 | 107 |
| CC(C)c1cc2c(cc1NC(=O)CN1CCCCC1)[C@@]1(C)CCC[C@@](C)(C(=O)O)[C@@H]1CC2 | 107 |
| CCCCCCCCCCCC(=O)Nc1cc2c(cc1C(C)C)CC[C@H]1[C@](C)(C(=O)O)CCC[C@]21C | 103 |
| CCCOc1cc2c(cc1C(C)C)CC[C@H]1[C@](C)(C(=O)O)CCC[C@]21C | 118 |
| CC(C)c1cc2c(cc1NC(=O)c1ccccc1)[C@@]1(C)CCC[C@@](C)(C(=O)O)[C@@H]1CC2 | 90 |
| CC(C)c1cc2c(cc1NC(=O)c1ccc(F)cc1)[C@@]1(C)CCC[C@@](C)(C(=O)O)[C@@H]1CC2 | 83.4 |
| CC(C)c1cc2c(cc1NC(=O)c1cccc(C(F)(F)F)c1)[C@@]1(C)CCC[C@@](C)(C(=O)O)[C@@H]1CC2 | 92.5 |
| CC(C)c1cc2c(cc1NC(=O)Nc1cc(C(F)(F)F)cc(C(F)(F)F)c1)[C@@]1(C)CCC[C@@](C)(C(=O)O)[C@@H]1CC2 | 132 |
| COc1cc2c(cc1C(C)C)CC[C@H]1[C@](C)(C(=O)O)CCC[C@]21C | 85.9 |
| CC(C)c1cc2c(cc1NC(=O)Nc1ccc(F)c(F)c1)[C@@]1(C)CCC[C@@](C)(C(=O)O)[C@@H]1CC2 | 139 |
| CC(C)c1cc2c(cc1NC(=O)Nc1cccc(C(F)(F)F)c1)[C@@]1(C)CCC[C@@](C)(C(=O)O)[C@@H]1CC2 | 99.9 |
| CC(C)c1ccc2c(c1N)CC[C@H]1[C@](C)(C(=O)O)CCC[C@]21C | 88.2 |
| COc1ccccc1C(=O)Nc1cc2c(cc1C(C)C)CC[C@H]1[C@](C)(C(=O)O)CCC[C@]21C | 86.5 |
| COc1ccc(Cl)cc1NC(=O)Nc1cc2c(cc1C(C)C)CC[C@H]1[C@](C)(C(=O)O)CCC[C@]21C | 94.4 |
| CCNC(=O)Nc1cc2c(cc1C(C)C)CC[C@H]1[C@](C)(C(=O)O)CCC[C@]21C | 89.9 |
| CC(C)C(=O)Nc1cc2c(cc1C(C)C)CC[C@H]1[C@](C)(C(=O)O)CCC[C@]21C | 130 |
